Measurements published in PMC11364019, “Capturing the blue-light activated state of the Phot-LOV1 domain from Chlamydomonas reinhardtii using time-resolved serial synchrotron crystallography” (IUCrJ, 2024).

Molecular target: T1, CrPhotLOV1 (Chlamydomonas reinhardtii, UniProt Q8LPD9)
T1 construct: gene PHOT; LOV1 domain, residues 16-133; N-terminal His-tag (pET16b) removed by limited trypsin proteolysis; expressed in E. coli BL21 DE3
T1 sequence (Q8LPD9 16-133): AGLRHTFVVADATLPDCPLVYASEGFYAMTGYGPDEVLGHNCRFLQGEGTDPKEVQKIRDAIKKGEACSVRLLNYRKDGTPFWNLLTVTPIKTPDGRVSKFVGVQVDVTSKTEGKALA
Assay: X-ray crystallography (cryo, serial and time-resolved serial synchrotron); FTIR difference spectroscopy on crystals
Assay type: binding
Settings: dark state: non-covalent; after blue light: covalent thioether adduct of Cys57 S-gamma to FMN C4a; crystals at pH 6.5; 100 K and room temperature

SMILES: Cc1cc2nc3c(=O)[nH]c(=O)nc-3n(C[C@H](O)[C@H](O)[C@H](O)COP(=O)(O)O)c2cc1C [FMN, flavin mononucleotide]
- X-ray crystallography (cryo, serial and time-resolved serial synchrotron); FTIR: light-induced formation of the thioether covalent adduct
